In patent publication US20240174608A1, “COMPOUNDS FOR BRAIN IMAGING” (The General Hospital Corporation, priority 2021, published 2024):

Tests used:
[1] = test system: histone deacetylases (HDACs); details: at 100 μM; cited from earlier work
[2] = test system: NAD glycohydrolase (NADase); details: at 100 μM; cited from earlier work
SIRT1 [3] = assay: NHP PET/MR brain imaging; details: baboon
Experimental: (§2) Atropine 0.05 mg/kg was used intramuscularly to prevent excessive secretion (15 or 30 min of ketamine and xylazine). Anesthesia was induced with intramuscular xylazine (0.5-2.0 mg/kg) and ketamine (10 mg/kg). […] PET/MR images were acquired in a Biograph mMR scanner (Siemens Healthcare, Erlangen, Germany), and PET compatible 8-channel coil arrays for NHP brain imaging with a PET resolution of ˜5 mm at isocenter. Dynamic PET image acquisition was initiated followed by administration of [^11C]8 in a homogeneous solution of 10% ethanol and 90% isotonic saline. A high-resolution structural MRI using [sequence] sequence was acquired about 30 min post-radiotracer administration for anatomical co-registration. Dynamic PET data were acquired and stored in list mode. After corrected for attenuation, scatter, and decay, the PET images were reconstructed using a 3D-OSEM method. […] Volumes of interests were placed referencing the MRI template. Time-activity curves were exported in terms of decay corrected activity at specified time points with gradually increasing intervals. The time-activity curves were expressed as SUV.

[4] = NHP arterial plasma analysis; details: baboon
Experimental: as §2

SIRT1 [5] = target: T1, SIRT1 (Mus musculus, UniProt Q923E4); assay: PET/CT imaging in 5×FAD transgenic mice (AD model); format: in vivo; parameters: from tissue; host or cells: brain of living 5×FAD transgenic mice; details: at 3 min
T1 sequence (Q923E4 1-737): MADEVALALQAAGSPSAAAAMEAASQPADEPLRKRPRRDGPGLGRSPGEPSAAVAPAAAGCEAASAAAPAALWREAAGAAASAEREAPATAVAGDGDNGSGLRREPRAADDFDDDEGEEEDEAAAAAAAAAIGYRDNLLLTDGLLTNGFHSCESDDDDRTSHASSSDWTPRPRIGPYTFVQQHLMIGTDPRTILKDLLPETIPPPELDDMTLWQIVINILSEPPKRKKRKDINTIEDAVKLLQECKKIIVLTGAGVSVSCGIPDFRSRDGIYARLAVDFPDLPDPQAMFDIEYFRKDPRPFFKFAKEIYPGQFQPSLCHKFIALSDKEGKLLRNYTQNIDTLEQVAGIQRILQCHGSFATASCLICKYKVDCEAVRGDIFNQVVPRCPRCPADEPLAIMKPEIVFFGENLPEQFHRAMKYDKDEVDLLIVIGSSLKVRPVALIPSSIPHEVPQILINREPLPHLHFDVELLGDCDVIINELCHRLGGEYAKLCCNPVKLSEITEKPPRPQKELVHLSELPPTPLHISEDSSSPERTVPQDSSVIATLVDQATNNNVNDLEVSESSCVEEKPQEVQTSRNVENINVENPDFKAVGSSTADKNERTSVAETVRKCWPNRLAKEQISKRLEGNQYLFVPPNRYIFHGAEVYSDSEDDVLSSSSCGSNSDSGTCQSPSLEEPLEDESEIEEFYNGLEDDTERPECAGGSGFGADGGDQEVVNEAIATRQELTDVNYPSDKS
Excerpt: C57BL/6 mice were used for baseline and blocking studies (25-30 g, male; n=6 for baseline, n=5 for blocking with the pre-treatment of compound 8, and n=6 for blocking with the pre-treatment of Ex-527), and B6SJL wild-type and 5×FAD transgenic mice (20-25 g, male; n=4 for wild-type mice and n=4 for 5×FAD transgenic mice) were included to evaluate the [^11C]8 in a model of AD. All animals were anesthetized with inhalational isoflurane at 3% in a carrier of 2 L/min medical oxygen, and maintained at 2% isoflurane for the duration of the scan. The mice were fixed on the bed of a Triumph Trimodality PET/CT scanner (Gamma Medica, Northridge, CA) in the prone position, and injected with [^11C]8 (150-200 μL, ˜200 μCi) via a lateral tail vein catheterization at the start of PET acquisition. For blocking studies, compound 8 (5 mg/kg, iv) or Ex-527 (5 mg/kg, iv) was injected at 10 min prior to [^11C]8 injection. Dynamic PET acquisition lasted for 60 min and was followed by CT for anatomic coregistration. PET data were reconstructed using a 3D-MLEM method resulting in a full width at half-maximum resolution of 1 mm. Reconstructed images were exported from the scanner in DICOM format along with an anatomic CT. […] The time-activity curves were expressed as the percentage of injected dose per gram (% ID/g).

SIRT1 [6] = target: T1, SIRT1; assay: Rodent PET/CT baseline imaging and whole body biodistribution; format: in vivo; parameters: from tissue; host or cells: brain and other organs of living C57BL/6 mice; details: C57BL/6 mice
Excerpt: (§1) C57BL/6 mice were used for baseline and blocking studies (25-30 g, male; n=6 for baseline, n=5 for blocking with the pre-treatment of compound 8, and n=6 for blocking with the pre-treatment of Ex-527), and B6SJL wild-type and 5×FAD transgenic mice (20-25 g, male; n=4 for wild-type mice and n=4 for 5×FAD transgenic mice) were included to evaluate the [^11C]8 in a model of AD. All animals were anesthetized with inhalational isoflurane at 3% in a carrier of 2 L/min medical oxygen, and maintained at 2% isoflurane for the duration of the scan. The mice were fixed on the bed of a Triumph Trimodality PET/CT scanner (Gamma Medica, Northridge, CA) in the prone position, and injected with [^11C]8 (150-200 μL, ˜200 μCi) via a lateral tail vein catheterization at the start of PET acquisition. For blocking studies, compound 8 (5 mg/kg, iv) or Ex-527 (5 mg/kg, iv) was injected at 10 min prior to [^11C]8 injection. Dynamic PET acquisition lasted for 60 min and was followed by CT for anatomic coregistration. PET data were reconstructed using a 3D-MLEM method resulting in a full width at half-maximum resolution of 1 mm. Reconstructed images were exported from the scanner in DICOM format along with an anatomic CT. […] Volumes of interests, including the whole brain, striatum, cortex, thalamus, midbrain, cerebellum and brain stem were placed referencing the MRI template software. […] The time-activity curves were expressed as the percentage of injected dose per gram (% ID/g).

SIRT1 [7] = target: T1, SIRT1; assay: Rodent PET/CT blocking studies (in vivo specificity); parameters: from tissue; host or cells: brain and other organs of living C57BL/6 mice; species or system C57BL/6 mice; details: for specific binding in brain: at 60 min
Excerpt: as §1

[8] = baseline whole body biodistribution

NC(=O)C1CCCc2c1[nH]c1ccc(Cl)cc21 (centres unmarked) [Ex-527]
inhibitory effect on class VII histone deacetylases (HDACs) [1]: no inhibitory effect | inhibitory effect on NAD glycohydrolase (NADase) [2]: no inhibitory effect

[11CH3]c1ccc2[nH]c3c(c2c1)CCCC3C(N)=O (centres unmarked) [[^11C]8, 6-[^11C]methyl-2,3,4,9-tetrahydro-1H-carbazole-1-carboxamide]
uptake in midbrain (SIRT1 [3]): 4.1 SUV | uptake in thalamus (SIRT1 [3]): 3.6 SUV | peak whole brain uptake (SIRT1 [3]; intravenous): greater than 2.9 SUV | time to peak concentration in whole brain (SIRT1 [3]; intravenous): approximately 4 min | arterial plasma radioactivity remaining (of the total radioactivity) ([4]; after 10 min): less than 10% | parent compound in plasma (stability in plasma over time) ([4]; at 30 min): more than 30% | brain uptake plateau (SIRT1 [5]): 6.3 % ID/g | radioactivity in liver and kidney (SIRT1 [6]; [8]): > 10 % ID/g | uptake in blood (SIRT1 [6]; [8]): relatively low uptake | BBB penetration (SIRT1 [6]; baseline): penetrated the BBB | time to reach plateau of brain time course (SIRT1 [6]; baseline): around 5 min | maximum radioactivity accumulation in the whole brain (SIRT1 [6]; baseline, iv tail vein): 7.5 % ID/g | washout ratio % ID/g 5 min / % ID/g 60 min (SIRT1 [6]; baseline, brain): 1.01 | brain uptake plateau (SIRT1 [7]; at 5 min, pre-treatment with compound 8 (5 mg/kg, iv)): 6.0 % ID/g | specific binding in brain (SIRT1 [7]; blocking by pre-treatment with Ex-527 (5 mg/kg, iv) 10 min prior): 62% | specific binding in brain (SIRT1 [7]; self-blocking, pre-treatment with compound 8 (5 mg/kg, iv) 10 min prior): 68% | specific binding in blood, heart and lung (SIRT1 [7]; both blocking experiments): abundant specific binding | specific binding in liver and kidney (SIRT1 [7]; both blocking experiments): No specific binding
